From patent US20100087383A1, “INT[…] INHIBITOR AND USE THEREOF” (National University Corporation Nagoya University, priority 2006, published 2010)

Assays:
[1] = test system: Alzheimer's disease mouse model subjected to intraventricular injection of Aβ; assay: Novel object recognition test, oral administration, Alzheimer's disease mouse model subjected to intraventricular injection of Aβ25-35; format: in vivo; details: day 5 after Aβ25-35, ICR mice, FIG. 2
Description: (§1) An Alzheimer's disease mouse model was produced by injecting Aβ25-35 (the aggregation of which had been accelerated by 4 days of incubation at 37° C.) to mouse cerebral ventricle, following which it was used for the experimental system. ICR mice (body weight of 20-22 g (7 weeks old), purchased from Japan SLC Inc. (Shizuoka, Japan)) were divided into 4 groups (n=15). A physiological saline solution that is a solvent for Leu-Ile, Leu-Ile (1.5 μmol/Kg), or Leu-Ile (15 μmol/Kg) was administered to Alzheimer's disease mouse model groups. Then the groups were used for the experiment.
Moreover, an Leu-Ile 7.5 μmol/Kg administrated group and an Leu-Ile 75 μmol/Kg administrated group were subjected to oral administration of Leu-Ile (7.5 μmol/Kg) and Leu-Ile (75 μmol/Kg), respectively, immediately after administration of Aβ25-35. A novel object recognition test (Ennaceur et al., Behav Brain Res 80 9-25, 1996) was conducted for all groups 3 to 5 days after intraventricular administration of Aβ25-35 or a physiological saline solution. The test results on day 5 after administration of Aβ25-35 or a physiological saline solution were compared with the other test results on […] after administration (FIG. 2).

untreated mice = assay: Novel object recognition test in untreated mice; format: in vivo, mouse; details: Leu-Ile 15 μmol/Kg intraperitoneal; untreated mice (no Aβ25-35)
Description: (§2) A novel object recognition test was conducted for each of the above groups 3 to 5 days after intraventricular administration of Aβ25-35 or a physiological saline solution. The test results on day 5 after administration of Aβ25-35 or a physiological saline solution were compared with the other test results on […] after administration (FIG. 3). Furthermore, Leu-Ile (15 μmol/Kg) was intraperitoneally administered to untreated mice and then the mice were subjected to a novel object recognition test similar to that conducted for the above test groups.

[2] = test system: Alzheimer's disease mouse model subjected to intraventricular injection of Aβ; assay: Novel object recognition test, intraperitoneal administration, Alzheimer's disease mouse model subjected to intraventricular injection of Aβ25-35; format: in vivo; details: day 5 after Aβ25-35, ICR mice, FIG. 3
Description: as §1, with “cerebral ventricle and then” for “cerebral ventricle, following which it was”, “20-22 g,” for “20-22 g (7 weeks old),”, “into 5” for “into 4”, “solution was administered instead of Aβ25-35 to the cerebral ventricle of a control group. A physiological saline solution;” for “solution”
The Alzheimer's disease model control group, the Leu-Ile […] administrated group, the Leu-Ile 15 μmol/Kg administrated group, and an Leu-Ile 75 μmol/Kg administrated group were separately subjected to the experiment.
Specifically, the Leu-Ile 7.5 μmol/Kg administrated group, the Leu-Ile 15 μmol/Kg administrated group, and the Leu-Ile 75 μmol/Kg administrated group were subjected to intraperitoneal administration of Leu-Ile (7.5 μmol/Kg), Leu-Ile (15 μmol/Kg), and Leu-Ile (75 μmol/Kg), respectively, immediately after administration of Aβ25-35.
as §2

Leu-Ile
recognition indices (novel object recognition test) ([1]; Leu-Ile 7.5 μmol/Kg oral): decreased recognition indices were not confirmed
recognition indices (novel object recognition test) ([1]; Leu-Ile 75 μmol/Kg oral): decreased recognition indices were not confirmed
effects of improving memory (novel object recognition test) (untreated mice): effects of improving memory were not observed
recognition indices (novel object recognition test) ([2]; Leu-Ile 1.5 μmol/Kg intraperitoneal): decreased recognition indices were not observed
recognition indices (novel object recognition test) ([2]; Leu-Ile 15 μmol/Kg intraperitoneal): decreased recognition indices were not observed
recognition indices (novel object recognition test) ([2]; Leu-Ile 75 μmol/Kg intraperitoneal): decreased recognition indices were not observed
